The text below walks through data of patent US20030180777A1, “Rapid identification of transcriptional regulatory domains” (priority 2002, published 2003).

What all share (type): cell-based
The target of test [1] is T1, P2X7 (Mus musculus, UniProt Q9Z1M0).
T1 construct: mouse Neuro-2A cells (expressing P2X7); endogenous in cells; host or cells: mouse Neuro-2A cells
T1 sequence (Q9Z1M0 1-595): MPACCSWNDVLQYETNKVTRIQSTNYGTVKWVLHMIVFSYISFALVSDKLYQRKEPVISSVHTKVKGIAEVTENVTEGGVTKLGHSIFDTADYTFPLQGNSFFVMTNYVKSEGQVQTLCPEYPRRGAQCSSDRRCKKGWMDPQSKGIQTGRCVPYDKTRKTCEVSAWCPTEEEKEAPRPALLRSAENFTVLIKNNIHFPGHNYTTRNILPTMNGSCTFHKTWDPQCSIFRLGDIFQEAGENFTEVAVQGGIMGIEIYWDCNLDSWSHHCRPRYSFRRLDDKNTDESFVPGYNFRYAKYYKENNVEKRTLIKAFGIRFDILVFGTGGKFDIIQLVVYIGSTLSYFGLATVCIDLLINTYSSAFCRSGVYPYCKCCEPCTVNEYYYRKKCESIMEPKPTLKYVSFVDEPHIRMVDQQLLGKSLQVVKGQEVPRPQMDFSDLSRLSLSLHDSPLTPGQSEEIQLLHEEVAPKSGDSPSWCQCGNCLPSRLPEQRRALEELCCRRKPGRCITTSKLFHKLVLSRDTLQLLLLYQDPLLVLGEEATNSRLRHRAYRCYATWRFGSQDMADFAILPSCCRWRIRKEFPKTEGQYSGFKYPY
In words: BzATP-induced EtBr uptake in Neuro-2A cells by FACS. Here is the method:
To test the suitability of the P2X7 gene as a reporter for high-throughput screening for repression domains, mouse Neuro-2A cells (expressing P2X7) were transiently transfected with a plasmid expressing a zinc finger DNA-binding domain targeted to the P2X7 gene (ZFP #5493) linked to a KOX1 repression domain. Control Neuro-2A cells were transfected with a vector lacking both library sequences and ZFP-encoding sequences (i.e., empty vector). Cells were treated for 10 minutes with different concentrations of BzATP (ranging from 0 to 1 mM), and EtBr was then added to a final concentration of 10 μM. After 20 minutes, cells were harvested by centrifugation, washed in PBS and analyzed by FACS.
For orientation: In flow cytometry, cells or beads pass a laser one at a time.

Test [2] deals with T1, P2X7. In words: BzATP-induced YO-PRO-1 uptake in Neuro-2A cells by flow cytometry. The settings on record: 0.2 mM BzATP, FIG. 1 left panel. Here is the method: ZFP/KOX-1-expressing cells were also assayed for P2X7 activity by measuring their ability to take up the DNA-binding dye YO-PRO-1, as follows. Seven days after the initial BzATP treatment, pools of clones containing 2-5×10^5 cells were incubated with 0.2 mM BzATP for 10 minutes in HKS Buffer (125 mM KCl, 1 mM EDTA, 5 mM glucose, 20 mM HEPES-KOH, pH 7.4). YO-PRO-1 (Molecular Probes, Inc., Eugene, Oreg.) was added to a final concentration of 5 μM. After an additional 25 min incubation in the presence of the dye, the cells were washed with PBS, collected by centrifugation, resuspended in PBS, and analyzed by FACS on a Beckman-Coulter EPICS XL flow cytometer.

The target in test [3] is T1, P2X7. The test can be described thus: BzATP-induced death of Neuro-2A cells. Here is the method: To test this selection method, Neuro-2A cells were transiently transfected with empty vector (see Example 3 supra) or with a plasmid expressing a KOX1 repressor domain linked to the P2X7-targeted zinc finger binding domain ZFP #5493. 48 hours after transfection, cells were detached from the plate with Trypsin-EDTA, collected by centrifugation and resuspended in HKS assay buffer (125 mM KC1, 1 mM EDTA, 5 mM glucose, 20 mM HEPES, pH 7.4 adjusted with KOH). Resuspended cells were mixed with BzATP (final concentrations ranging from 0 to 1 mM) and plated onto 6 well plates (1×10^5 cells/well in 1 ml HKS). After a 2h incubation at 37° C. in a cell incubator, cells were washed with PBS, and growth medium (minimal essential medium with Earle's salts and non-essential amino acids, adjusted to contain 2 mM L-glutamine, 1.5 g/L Na bicarbonate, 1.0 mM Na pyruvate and 10% fetal bovine serum) was added to plates.

Consider benzoylbenzoyl ATP [BzATP], for which, at P2X7 [1] (BzATP above 0.04 mM, range tested up to 1 mM), the “EtBr accumulation at higher concentrations of BzATP” value is reported as “induced significant accumulation of EtBr”. Moreover, at P2X7 [1] (BzATP up to 0.04 mM), the “EtBr uptake at low concentrations of BzATP” value is “did not induce significant uptake of EtBr”. For the same substance, the “YO-PRO-1 uptake by control uninfected cells in the presence of BzATP” value at P2X7 [2] is “substantial amounts of YO-PRO-1”. Also, the “cell death at relatively low concentrations of BzATP” value at P2X7 [3] (BzATP >20 μM, cells transfected with either empty vector or the ZFP-KOX construct) was “some death of cells”. Also, on P2X7 [3] (BzATP concentrations >100 μM), the “survival of cells transfected with empty vector” value was “almost no survival”.
